In BindingDB's records for doi:10.1021/jm1009154 (University of Copenhagen, 2010):

Molecular target: Excitatory amino acid transporter 1 (Homo sapiens, UniProt P43003)
Assay: Inhibition of human EAAT1 expressed in HEK293 cells by [3H]D-Asp uptake assay

Chain of Excitatory amino acid transporter 1 (P43003 whole entry): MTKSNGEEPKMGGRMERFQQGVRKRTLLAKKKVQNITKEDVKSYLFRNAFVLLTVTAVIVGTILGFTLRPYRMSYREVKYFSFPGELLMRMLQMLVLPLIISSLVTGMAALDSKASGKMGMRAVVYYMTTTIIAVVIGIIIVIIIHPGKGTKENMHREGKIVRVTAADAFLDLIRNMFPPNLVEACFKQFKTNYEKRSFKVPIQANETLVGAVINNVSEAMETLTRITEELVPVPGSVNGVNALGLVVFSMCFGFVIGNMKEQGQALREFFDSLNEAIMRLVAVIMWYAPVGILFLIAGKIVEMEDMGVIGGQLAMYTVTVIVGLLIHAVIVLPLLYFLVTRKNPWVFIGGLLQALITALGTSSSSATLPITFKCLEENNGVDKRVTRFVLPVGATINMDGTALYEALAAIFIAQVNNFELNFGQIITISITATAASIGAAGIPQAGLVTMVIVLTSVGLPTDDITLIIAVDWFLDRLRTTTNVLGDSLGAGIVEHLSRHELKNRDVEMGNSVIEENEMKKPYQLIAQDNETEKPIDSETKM

IC50 [µM] | Structure (SMILES)
> 300 | N#CC1C(=N)OC2=C(C(=O)O[C@H](c3ccccc3)C2)[C@@H]1c1ccccc1 (relative stereo) [anti-2-Amino-5-oxo-4,7-diphenyl-4,5,7,8-tetrahydropyrano[4,3-b]-pyran-3-carbonitril]
> 100 | N=C1CC(c2ccccc2)C2=C(CC(c3ccccc3)CC2=O)O1 (stereo not drawn) [2-Amino-4,7-diphenyl-7,8-dihydro-4H-chromen-5(6H)-one]
> 316 | N#CC1C(=N)OC2=C(C(=O)N[C@H](c3ccccc3)C2)[C@@H]1c1ccccc1 (relative stereo) [anti-2-Amino-5-oxo-4,7-diphenyl-5,6,7,8-tetrahydro-4H-pyrano-[3,2-c]pyridine-3-carbonitrile]
> 300 | COC(=O)C1C(=N)OC2=C(C(=O)CC(c3ccccc3)C2)C1c1ccccc1 (stereo not drawn) [Methyl2-Amino-5-oxo-4,7-diphenyl-5,6,7,8-tetrahydro-4Hchromene-3-carboxylate]
> 100 | N=C1OC2=C(C(=O)CC(c3ccccc3)C2)C(c2ccccc2)C1C(N)=O (stereo not drawn) [2-Amino-5-oxo-4,7-diphenyl-5,6,7,8-tetrahydro-4H-chromene-3-carboxamide]
> 300 | N#CC1C(=N)OC2=C(C(=O)O[C@@H](c3ccccc3)C2)[C@@H]1c1ccccc1 (relative stereo) [syn-2-Amino-5-oxo-4,7-diphenyl-4,5,7,8-tetrahydropyrano[4,3-b]-pyran-3-carbonitrile]
> 300 | N#CC1C(=N)OC2=C(C(=O)N[C@@H](c3ccccc3)C2)[C@@H]1c1ccccc1 (relative stereo) [syn-2-amino-5-oxo-4,7-diphenyl-5,6,7,8-tetrahydro-4H-pyrano[3,2-c]pyridine-3-carbonitrile]
> 316 | CC1CC(=O)C2=C(C1)OC(=N)C(C#N)C2c1ccc2c(c1)OCO2 (stereo not drawn) [2-amino-4-(benzo[d][1,3]dioxol-5-yl)-7-methyl-5-oxo-5,6,7,8-tetrahydro-4H-chromene-3-carbonitrile]
